From patent publication US11845730B2, “1,3-substituted cyclobutyl derivatives and uses thereof” (Novartis AG, priority 2021, dated 2023)
Counter-ions that a name gives are not always drawn.

What follows are compounds tested against human TRPV1 (Homo sapiens (Human), UniProt Q8NER1). Conditions: read-out: IC50 (μM), antagonist effect against human TRPV1; CHO cells expressing human TrpV1; stimulated with 2.5 μM NADA (EC80); mean of at least three independent experiments.
Sequence of human TRPV1 (Q8NER1 whole entry): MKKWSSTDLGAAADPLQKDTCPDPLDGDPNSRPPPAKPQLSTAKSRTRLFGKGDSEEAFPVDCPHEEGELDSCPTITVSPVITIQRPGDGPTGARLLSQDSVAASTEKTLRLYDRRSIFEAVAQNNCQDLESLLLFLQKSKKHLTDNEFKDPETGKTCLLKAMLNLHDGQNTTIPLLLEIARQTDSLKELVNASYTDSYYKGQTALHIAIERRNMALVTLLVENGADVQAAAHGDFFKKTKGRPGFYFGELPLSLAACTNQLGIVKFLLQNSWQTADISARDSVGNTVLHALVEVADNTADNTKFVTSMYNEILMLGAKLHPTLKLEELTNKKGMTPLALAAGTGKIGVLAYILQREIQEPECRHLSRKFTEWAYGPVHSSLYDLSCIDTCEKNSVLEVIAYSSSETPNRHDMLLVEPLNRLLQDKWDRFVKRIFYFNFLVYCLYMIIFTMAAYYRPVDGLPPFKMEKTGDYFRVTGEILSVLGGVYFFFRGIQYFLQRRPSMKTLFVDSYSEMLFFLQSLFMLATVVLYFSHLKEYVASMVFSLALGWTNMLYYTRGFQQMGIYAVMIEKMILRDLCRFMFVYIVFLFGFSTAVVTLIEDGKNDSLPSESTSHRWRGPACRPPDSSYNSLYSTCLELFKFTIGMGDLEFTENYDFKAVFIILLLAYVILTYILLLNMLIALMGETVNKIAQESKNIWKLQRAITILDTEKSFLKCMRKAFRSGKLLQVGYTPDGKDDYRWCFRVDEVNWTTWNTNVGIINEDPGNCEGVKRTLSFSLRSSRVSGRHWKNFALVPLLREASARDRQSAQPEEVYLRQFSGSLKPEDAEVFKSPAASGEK

In order of falling IC50:
1. Nc1cc2c(CN[C@H]3C[C@H](Oc4ccc(C(F)(F)F)nc4)C3)cccc2cn1 [Example 74, 5-((((1r,3r)-3-((6-(trifluoromethyl)pyridin-3-yl)oxy)cyclobutyl)amino)methyl)isoquinolin-3-amine]  0.995 µM
2. CCOC(=O)c1ccc(O[C@H]2C[C@H](NCc3c(F)ccc4cnccc34)C2)cc1 [Example 80, ethyl 4-((1r,3r)-3-(((6-fluoroisoquinolin-5-yl)methyl)amino)cyclobutoxy)benzoate]  0.98 µM
3. OCc1cc(F)c(CN[C@H]2C[C@H](Oc3ccnc(C(F)(F)F)c3)C2)c2ccncc12 [Example 90, (6-fluoro-5-((((1r,3r)-3-((2-(trifluoromethyl)pyridin-4-yl)oxy)cyclobutyl)amino)methyl)isoquinolin-8-yl)methanol]  0.874 µM
4. Fc1ccc(CO[C@H]2C[C@H](NCc3c(F)ccc4cnccc34)C2)cc1F [Example 78, (1r,3r)-3-((3,4-difluorobenzyl)oxy)-N-((6-fluoroisoquinolin-5-yl)methyl)cyclobutan-1-amine]  0.77 µM
5. Fc1ccc2cnccc2c1CN[C@H]1C[C@H](Oc2nc3ccccc3s2)C1 [Example 96, (1r,3r)-3-(benzo[d]thiazol-2-yloxy)-N-((6-fluoroisoquinolin-5-yl)methyl)cyclobutan-1-amine, HCl]  0.747 µM
6. Cc1cc(C)cc(O[C@H]2C[C@H](NCc3c(F)ccc4cnccc34)C2)c1 [Example 84, (1r,3r)-3-(3,5-dimethylphenoxy)-N-((6-fluoroisoquinolin-5-yl)methyl)cyclobutan-1-amine, HCl]  0.722 µM
7. OCCC(CO)c1cc(F)c(CN[C@H]2C[C@H](Oc3ccc(F)c(C(F)(F)F)c3)C2)c2ccncc12 (some centres unmarked) [Example 77, 2-(6-fluoro-5-((((1r,3r)-3-(4-fluoro-3-(trifluoromethyl)phenoxy)cyclobutyl)amino)methyl)isoquinolin-8-yl)butane-1,4-diol]  0.691 µM
8. COc1ncc(O[C@H]2C[C@H](NCc3c(F)ccc4cnccc34)C2)cc1C(F)(F)F [Example 92, (1r,3r)-N-((6-fluoroisoquinolin-5-yl)methyl)-3-((6-methoxy-5-(trifluoromethyl)pyridin-3-yl)oxy)cyclobutan-1-amine, HCl]  0.58 µM
9. OCc1cc(F)c(CN[C@H]2C[C@@H](Oc3ccc(F)c(C(F)(F)F)c3)C2)c2ccncc12 [Example 89, (6-fluoro-5-((((1s,3s)-3-(4-fluoro-3-(trifluoromethyl)phenoxy)cyclobutyl)amino)methyl)isoquinolin-8-yl)methanol, HCl]  0.44 µM
10. Fc1ccc2cnccc2c1CN[C@H]1C[C@H](Oc2cncc(C(F)(F)F)c2)C1 [Example 95, (1r,3r)-N-((6-fluoroisoquinolin-5-yl)methyl)-3-((5-(trifluoromethyl)pyridin-3-yl)oxy)cyclobutan-1-amine, HCl]  0.323 µM
11. Fc1ccc(O[C@H]2C[C@H](NCc3cccc4cncnc34)C2)cc1C(F)(F)F [Example 87, (1r,3r)-3-(4-fluoro-3-(trifluoromethyl)phenoxy)-N-(quinazolin-8-ylmethyl)cyclobutan-1-amine, HCl]  0.321 µM
12. N#Cc1ccc(O[C@H]2C[C@H](NCc3c(F)ccc4cnccc34)C2)c(F)n1 [Example 75, 6-fluoro-5-((1r,3r)-3-(((6-fluoroisoquinolin-5-yl)methyl)amino)cyclobutoxy)picolinonitrile, HCl]  0.269 µM
13. CN(C)c1ccc2cnccc2c1CN[C@H]1C[C@H](Oc2ccc(F)c(C(F)(F)F)c2)C1 [Example 81, 5-((((1r,3r)-3-(4-fluoro-3-(trifluoromethyl)phenoxy)cyclobutyl)amino)methyl)-N,N-dimethylisoquinolin-6-amine, HCl]  0.255 µM
14. Fc1ccc2cnccc2c1CN[C@H]1C[C@H](Oc2ccc(S(F)(F)(F)(F)F)cc2)C1 [Example 83, (1r,3r)-N-((6-fluoroisoquinolin-5-yl)methyl)-3-(4-(pentafluoro-λ^6-sulfaneyl)phenoxy)cyclobutan-1-amine, HCl]  0.207 µM
15. [O-][n+]1ccc2c(CN[C@H]3C[C@H](Oc4ccc(F)c(C(F)(F)F)c4)C3)c(F)ccc2c1 [Example 73, 6-fluoro-5-((((1r,3r)-3-(4-fluoro-3-(trifluoromethyl)phenoxy)cyclobutyl)amino)methyl)isoquinoline 2-oxide]  0.193 µM
16. Fc1ccc2cnccc2c1CN[C@H]1C[C@H](Oc2ccc(C(F)(F)F)nc2)C1 [Example 94, (1r,3r)-N-((6-fluoroisoquinolin-5-yl)methyl)-3-((6-(trifluoromethyl)pyridin-3-yl)oxy)cyclobutan-1-amine, HCl]  0.193 µM
17. Fc1cc(F)cc(O[C@H]2C[C@H](NCc3c(F)ccc4cnccc34)C2)c1 [Example 82, (1r,3r)-3-(3,5-difluorophenoxy)-N-((6-fluoroisoquinolin-5-yl)methyl)cyclobutan-1-amine, HCl]  0.169 µM
18. Fc1ccc2cnccc2c1CN[C@H]1C[C@H](Oc2ccc(C3CC3)cc2)C1 [Example 85, (1r,3r)-3-(4-cyclopropylphenoxy)-N-((6-fluoroisoquinolin-5-yl)methyl)cyclobutan-1-amine, HCl]  0.155 µM
19. Cc1ccc(O[C@H]2C[C@H](NCc3c(F)ccc4cnccc34)C2)cc1C [Example 79, (1r,3r)-3-(3,4-dimethylphenoxy)-N-((6-fluoroisoquinolin-5-yl)methyl)cyclobutan-1-amine, HCl]  0.147 µM
20. Fc1ccc2cnccc2c1CN[C@H]1C[C@H](Oc2cccc(C3CC3)c2)C1 [Example 88, (1r,3r)-3-(3-cyclopropylphenoxy)-N-((6-fluoroisoquinolin-5-yl)methyl)cyclobutan-1-amine, HCl]  0.0952 µM
21. Fc1cc(O[C@H]2C[C@H](NCc3c(F)ccc4cnccc34)C2)ccc1OC(F)(F)F [Example 93, (1r,3r)-3-(3-fluoro-4-(trifluoromethoxy)phenoxy)-N-((6-fluoroisoquinolin-5-yl)methyl)cyclobutan-1-amine, HCl]  0.0826 µM
22. N#Cc1ccc(O[C@H]2C[C@H](NCc3c(F)ccc4cnccc34)C2)cc1C(F)(F)F [Example 86, 4-((1r,3r)-3-(((6-fluoroisoquinolin-5-yl)methyl)amino)cyclobutoxy)-2-(trifluoromethyl)benzonitrile, HCl]  0.0693 µM
23. O=C(O)C(O)c1cc(F)c(CN[C@H]2C[C@H](Oc3ccc(F)c(C(F)(F)F)c3)C2)c2ccncc12 (some centres unmarked) [Example 72, 2-(6-fluoro-5-((((1r,3r)-3-(4-fluoro-3-(trifluoromethyl)phenoxy)cyclobutyl)amino)methyl)isoquinolin-8-yl)-2-hydroxyacetic acid]  0.0521 µM
24. Fc1ccc(O[C@H]2C[C@H](NCc3c(F)ccc4cnccc34)C2)cc1C(F)F [Example 91, (1r,3r)-3-(3-(difluoromethyl)-4-fluorophenoxy)-N-((6-fluoroisoquinolin-5-yl)methyl)cyclobutan-1-amine, HCl]  0.0399 µM
25. Fc1ccc2cnccc2c1CN[C@H]1C[C@H](Oc2cccc(C(F)(F)F)c2)C1 [Example 71, (1r,3r)-N-((6-fluoroisoquinolin-5-yl)methyl)-3-(3-(trifluoromethyl)phenoxy)cyclobutan-1-amine, HCl]  0.0316 µM
26. Fc1ccc2cnccc2c1CN[C@H]1C[C@H](Oc2ccc(C(F)(F)F)cc2)C1 [Example 76, (1r,3r)-N-((6-fluoroisoquinolin-5-yl)methyl)-3-(4-(trifluoromethyl)phenoxy)cyclobutan-1-amine, HCl]  0.0277 µM
